Data taken from paper PMC6368574, “Probing the Inhibition of Microtubule Affinity Regulating Kinase 4 by N-Substituted Acridones” (Scientific Reports, 2019).
Like-named read-outs stand apart in the source and are kept apart here.

Tests used:
[1] = target: T1, recombinant MARK4 (Homo sapiens, UniProt Q96L34); experiment: ATPase enzyme inhibition assay (Malachite Green); assay type: biochemical
T1 construct: made in house; host or cells: bacterial cells (Luria-Bertani broth, IPTG induction)
T1 sequence (Q96L34 1-752): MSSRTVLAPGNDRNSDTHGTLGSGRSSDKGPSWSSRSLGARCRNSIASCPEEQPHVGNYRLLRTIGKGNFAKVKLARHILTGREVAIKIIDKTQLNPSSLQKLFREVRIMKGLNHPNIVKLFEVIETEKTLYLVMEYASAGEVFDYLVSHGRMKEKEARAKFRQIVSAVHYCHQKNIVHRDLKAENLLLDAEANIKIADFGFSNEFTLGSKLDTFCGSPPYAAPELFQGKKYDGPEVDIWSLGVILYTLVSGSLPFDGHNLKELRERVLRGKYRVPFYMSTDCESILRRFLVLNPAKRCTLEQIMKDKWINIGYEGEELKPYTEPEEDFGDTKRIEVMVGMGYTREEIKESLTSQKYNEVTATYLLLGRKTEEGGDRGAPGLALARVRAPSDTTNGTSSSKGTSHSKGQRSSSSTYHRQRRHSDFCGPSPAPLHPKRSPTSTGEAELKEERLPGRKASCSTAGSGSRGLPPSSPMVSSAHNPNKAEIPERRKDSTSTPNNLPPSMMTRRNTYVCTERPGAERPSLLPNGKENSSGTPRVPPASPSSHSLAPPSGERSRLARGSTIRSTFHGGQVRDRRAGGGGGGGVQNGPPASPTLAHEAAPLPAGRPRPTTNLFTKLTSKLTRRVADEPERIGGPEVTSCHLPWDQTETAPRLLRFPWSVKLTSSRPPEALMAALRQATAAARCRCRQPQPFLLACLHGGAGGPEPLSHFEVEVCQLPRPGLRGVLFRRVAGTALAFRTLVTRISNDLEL
Protocol: To evaluate the inhibition activity of synthesized acridone derivatives against recombinant MARK4, ATPase enzyme inhibition assay was performed (Table S3). […] Our studies were initiated by replacing the ester group of 5 with sterically and electronically diverse amines affording the corresponding amides 7a–j, in order to establish favorable interactions with residues Ala135, Val70, Asp196 and/or Glu182. […] In this case, the docking studies indicate a better fit of 7h compared with 7g in the active site of MARK4 with a binding energy of −9.5 kcal/mol and a stronger predicted hydrogen bond with Ala135 (3.06 Å for 7h, 3.19 Å for 7g).
Enzyme activity of MARK4 was evaluated with the help of standard Malachite Green (Biomol Green reagent, Enzo Life Sciences) microtitre-plate assay as described earlier. Estimated amount of MARK4 (200 ng) and 20 µM ATP as a substrate were incubated for 10–15 min at 25 °C with increasing concentrations (0–20 µM) of synthesized acridone derivatives, in 20 mM Tris buffer, pH 8.0. Reaction was terminated by the adding 100 µl of Biomol Green reagent and absorbance of final reaction products was recorded at 620 nm in a multiplate ELSIA reader (BioRad). In order to quantify the hydrolyzed phosphate, inorganic phosphate standard curve were prepared from the phosphate standard solutions as supplied by the manufacturer (Biomol Green reagent, Enzo Life Sciences). All data points represent triplicate measurements from at least three independent experiments.

[2] = tested on: MCF-7 cells; experiment: MTT cell viability assay, MCF-7; assay type: cell-based; details: Homo sapiens, MCF7
Protocol: (§1) Initially, all synthesized acridone derivatives were evaluated for their cytotoxicity potential on MCF-7, HepG2 and HEK293 cell lines by MTT assay. These synthesized acridone derivatives were screened in the concentration range of 0–200 µM, for 24 and 48 h. […] It was also interesting that in the studied […] concentration range these compounds don’t show considerable cytotoxicity towards HEK293 cell lines. […] Thus, compounds 5, 7b, 7d, 7f and 7h were taken for further cell based studies such as apoptosis and reactive oxygen species (ROS) production.
(§2) To study the effect of synthesized acridone derivatives on cell viability and proliferation, a standard MTT method was carried out. Cells were plated (8000–9000/well) in a 96-well plate and incubated overnight. On the next day, cells were treated with increasing concentrations (0.1–80 μM) of synthesized acridone derivatives in a final volume of 200 µl for 48 h at 37 °C in a humidified chamber. At the end of treatment time point, 20 µl of MTT solution (from 5 mg/ml stock solution in phosphate buffer saline, pH 7.4) was added to each well and incubated further for 4–5 h at 37 °C in the CO2 incubator. After stipulated time the supernatant was aspirated and the colored formazan crystal produced as a result of MTT reduction was dissolved in 100 µl of DMSO. The absorbance (A) of colored product was then measured at 570 nm on a multiplate ELISA reader (BioRad). The percentage of viable cells was calculated and used to estimate the IC50 (50% inhibitory concentration) values for each acridone derivative. For cell proliferation studies paclitaxel has been taken as positive control.

[3] = tested on: HEK293 cells; experiment: MTT cell viability assay, HEK293; assay type: cell-based; details: Homo sapiens, Table S2
Protocol: as §1, §2

[4] = Table 1, from enzyme inhibition, read-out: IC50, (µM), MARK4
[5] = Table 1, from MTT, read-out: IC50, (µM), MCF-7
[6] = ATPase inhibition, 20 µM ATP, read-out: IC50 against MARK4
[7] = MTT, read-out: IC50 for MCF-7 cells

SMILES	IC50 [1, 4] [µM]	IC50 [2, 5] [µM]	IC50 [1, 6] [µM]	IC50 [2, 7] [µM]	IC50 [3] [µM]
Cc1ccc2c(c1)c(=O)c1ccccc1n2CC(=O)NCc1ccccc1 [Compound 7b, N-benzyl-2-(2-methyl-9-oxoacridin-10(9H)-yl)acetamide]	1.8 ± 0.04	5.2 ± 1.2			> 200
COc1ccc(CNC(=O)Cn2c3ccccc3c(=O)c3cc(C)ccc32)cc1 [Compound 7d, N-(4-methoxybenzyl)-2-(2-methyl-9-oxoacridin-10(9H)-yl)acetamide]	2.2 ± 0.05	6.3 ± 1.2			> 200
COC(=O)Cn1c2ccccc2c(=O)c2cc(C)ccc21 [Compound 5, Methyl 2-(2-methyl-9-oxoacridin-10(9H)-yl)acetate]			14.1 ± 1.02	9.4 ± 1	> 200

Now from value to compound, other results behind:

IC50 [1, 4] [µM]	IC50 [2, 5] [µM]	IC50 [1, 6] [µM]	IC50 [2, 7] [µM]	SMILES	IC50 [3] [µM]
4.5 ± 0.52	5.8 ± 1.4			Cc1ccc(NC(=O)Cn2c3ccccc3c(=O)c3cc(C)ccc32)cc1 [Compound 7f, 2-(2-Methyl-9-oxoacridin-10(9H)-yl)-N-(p-tolyl)acetamide]	> 200
		12.1 ± 1.1	7.2 ± 1.33	COc1ccccc1NC(=O)Cn1c2ccccc2c(=O)c2cc(C)ccc21 [Compound 7h, N-(2-methoxyphenyl)-2-(2-methyl-9-oxoacridin-10(9H)-yl)acetamide]	> 200
